From patent publication US20230097801A1, “METHODS OF INCREASING CELL PHAGOCYTOSIS” (National Health Research Institutes, priority 2021, published 2023)

Key:
CD47 [1] = test: Flow cytometry, anti-human CD47 CC2C6 antibody binding on Raji cell surface; format: cell-based; details: for IC50: B-cell Lymphoma (Raji cells), 4 days treatment, read-out: IC50, inhibition of CC2C6 binding; for inhibition of binding of anti-human CD47 antibody CC2C6 (in words): Raji cells
Description: (§1) Binding between CD47 and SIRPα was studied by measuring the level of CD47 binding using any suitable method. Flow cytometric analysis is useful to quantify the level of binding of CD47 to antibody CC2C6, which is then subjected to an immune-staining procedure using fluorochrome-conjugated secondary antibody followed by analysis of the immune-staining signal with a flow cytometry instrument to obtain the level of the CD47-CC2C6 binding. In another method, analysis of CD47 is performed using SIRPα-Fc formed from SIRPα fused with human IgG1, which is then subjected to an immune-staining procedure using fluorochrome-conjugated secondary antibody against human IgG1, followed by analysis of the immune-staining signal. SIRPα is expressed on the surface of a myeloid cell such as macrophage, monocyte, neutrophil, or dendritic cell. Alternatively, SIRPα is fused with human IgG1 to form a SIRPα-Fc recombinant protein. […] An anti-cancer agent (e.g., rituximab) can be used together with a compound of formula (I). Useful anti-cancer agents are described above including anti-PD-L1 antibodies, anti-CD20 antibodies, anti-HER2 antibodies, anti-EGFR antibodies, and anti-CD47 antibodies. Other suitable anti-cancer agents are chemotherapeutic agents such as doxorubicin, epirubicin, idarubicin, methotrexate, mitoxantrone, oxaliplatin, and cyclophosphamide.
Human B-cell lymphoma Raji cells were purchased from BCRC, Taiwan. Raji cells were maintained at 37° C. under 5% CO2 in RPMI-1640 medium (Hyclone, Marlborough, Mass.) supplemented with 10% fetal bovine serum (FBS) (SAFC, Sigma-Aldrich, St. Louis, Mo.) containing 2 mM L-glutamine (Hyclone, Marlborough, Mass.), 10 mM HEPES (Hyclone, Marlborough, Mass.) and 1 mM sodium pyruvate (Hyclone, Marlborough, Mass.).
(§2) Antibody conjugates and extracellular domain of SIRPα used to analyze cell surface CD47 binding include anti-human CD47 CC2C6, 2D3, recombinant human SIRPα/CD172a Fc chimer protein, and anti-human IgG Fc. To determine inhibition of CD47 binding, cancer cells were treated with compounds of formula (I) at various concentrations for 4 days. Thereafter, the cells were washed with PBS containing 0.5% BSA (FACS buffer) followed by incubation with fluorochrome-labeled antibodies to human CD47 (i.e., CC2C6 and 2D3) at 1:50 dilution in FACS buffer for 30 minutes at 4° C. Compounds of formula (I) produced a dose-dependent inhibition of anti-CD47 CC2C6 antibody that recognized CD47 and SIRPα binding site on the tumor cell surface including B-cell lymphoma Raji cells, colon cancer cells DLD-1, and ovarian cancer SK-OV-3 cells (see FIGS. 1A, 1B, and 1C, respectively).

CD47 [2] = test: Flow cytometry, anti-human CD47 CC2C6 antibody binding on DLD-1 cell surface; format: cell-based; details: for IC50: Colon Cancer (DLD-1 cells), 4 days treatment, read-out: IC50, inhibition of CC2C6 binding; for inhibition of binding of anti-human CD47 antibody CC2C6 (in words): DLD-1 cells
Description: as §1
Human colon cancer DLD-1 cells were obtained from NHRI IBPR HTS Lab, Taiwan. DLD-1 cells were maintained under the same conditions described immediately above.
as §2

CD47 [3] = test: Flow cytometry, anti-human CD47 CC2C6 antibody binding on SK-OV-3 cell surface; format: cell-based; details: for inhibition of binding of anti-human CD47 antibody CC2C6 (in words): SK-OV-3 cells; for IC50: Ovarian Cancer (SK-OV3 cells), 4 days treatment, read-out: IC50, inhibition of CC2C6 binding
Description: as §1
SK-OV-3 cells were purchased from ATCC (Manassas, Va.). SK-OV-3 cells were maintained at 37° C. under 5% CO2 in McCoy's 5a medium (Gibco, ThermoFisher, Waltham, Mass.) with 10% fetal bovine serum (FBS) (Sigma-Aldrich, St Louis, Mo.), and 2 mM L-glutamine.
as §2

CD47 [4] = test: Flow cytometry, anti-human CD47 2D3 control antibody binding on Raji cell surface; format: cell-based; details: Raji cells
Description: as §2

Mouse pk profiles = format: in vivo; details: for clearance / Cmax / bioavailability / half-life: plasma; for bioavailability: PO (30 mg/kg) vs IV (2 mg/kg); for half-life: read-out: T1/2 (h) Plasma (converted)
[5] = test system: human B-cell lymphoma Raji xenograft tumor; test: Raji xenograft anti-tumor efficacy and survival study (3 weeks treatment); format: in vivo, NOD/SCID mice; details: Compound 34 100 mg/kg p.o. QD*5, rituximab 10 mg/kg i.p. 2QW
Text: (§3) Human B-cell lymphoma Raji cells were used to evaluate the efficacy of Compound 34 and rituximab in treating cancer cells. Prior to injection into animals, the cancer cells were detected as free of Mycoplasma spp. NOD/SCID mice (BioLasco, Taiwan) were used for in vivo experiments due to their higher affinity of SIRPα to human CD47. The mice used in these studies were housed in Institutional Animal Care and Use Committees-approved facility at National Health Research Institutes in accordance with guidelines for the care and use of laboratory animals.
One million Raji cells in culture medium and matrigel (1:1, v/v) were injected subcutaneously into the left flank region of the mice (n=7 to 10 animals per group). Treatments were initiated after randomization with inclusion of tumors at approximately 100 mm^3. A dosing vehicle for Compound 34 was prepared using 10% DMA: 40% PEG400: 50% (1% CMC) (v/v/v) and was dosed orally (p.o.) at 100 mg/kg once a day, 5 days a week (Q.D.*5). Rituximab (Roche-Genentech, South San Francisco, Calif.) stock solution was diluted with PBS and dosed at 10 mg/kg twice a week (2QW) by intraperitoneal (i.p.) injection.
To evaluate anti-tumor efficacy and survival rates, mice were treated with vehicle control, 10 mg/kg rituximab (2QW, i.p.), 100 mg/kg Compound 34 (QD*5), or rituximab in combination with Compound 34. Treatment was discontinued at the end of 3 weeks. The mice were monitored for cancer growth and body weight once a week. Cancer growth was measured by volume with an electronic caliper. The volume was calculated as L×W^2/2, in which L is the length of the tumor and W is its width. Tumor size and animal body weight were measured once a week after cancer cell inoculation. Cancer response at the end of the study was calculated as tumor growth inhibition (TGI) using (1−T/C)*100, in which T is the mean tumor volume (mm^3) of the test group, and C is the mean tumor volume (mm^3) of the vehicle-treated group. […] For the survival study, treatment was discontinued at the end of 3 weeks. Thereafter, mice were followed up for tumor growth and body weight once a week. The mice were then sacrificed when tumor volume reached 2,000 mm^3 or body weight loss was greater than 10%. Kaplan-Meier plots were used as the study end point to calculate percentage of animals remaining in the study in term of the time. The median survival days for vehicle control and Compound 34 were 15.5 days and 18 days, respectively (FIG. 5E). Rituximab prolonged median survival days to 28 days after treatment discontinued (FIGS. 5C and 5E). Importantly, the combination of rituximab and Compound 34 further prolonged median survival days to 47 days (FIGS. 5D and 5E).

[6] = test system: human B-cell lymphoma Raji xenograft tumor; test: Raji xenograft dose-dependent efficacy of Compound 34 with rituximab (6 weeks); format: in vivo, NOD/SCID mice; details: rituximab 10 mg/kg alone
Text: as §3
To evaluate dose-dependent anti-tumor efficacy of Compound 34 in combination with rituximab, mice were treated with vehicle control, rituximab, or rituximab in combination with Compound 34 for 6 weeks. A dosing vehicle for Compound 34 was prepared using 10% DMA: 40% PEG400: 50% (1% CMC) (v/v/v) and was dosed orally (p.o.) at 10 mg/kg, 30 mg/kg, and 100 mg/kg once a day, 5 days a week (Q.D.*5). Rituximab (Roche-Genentech, South San Francisco, Calif.) stock solution was diluted with PBS and dosed at 10 mg/kg twice a week (2QW) by intraperitoneal (i.p.) injection. Cancer growth was measured by volume with an electronic caliper. The volume was calculated as L×W^2/2, in which L is the length of the tumor and W is its width. Tumor size and animal body weight were measured once a week after cancer cell inoculation. Cancer response at the end of the study was calculated as tumor growth inhibition (TGI) using (1−T/C)*100, in which T is the mean tumor volume (mm^3) of the test group, and C is the mean tumor volume (mm^3) of the vehicle-treated group. The treatment response rate were classified into 4 categories: complete regression (CR), in which the tumor was undetectable at the end of study; partial regression (PR), in which the tumor volume was less than or equal to 30% of the initial tumor volume at the end of study; stable disease (SD), in which the tumor volume was between […] of the initial tumor volume at the end of study; progression disease (PD), in which the tumor volume was greater than 50% of the initial tumor volume at the end of study. An overall response rate (ORR) is calculated based on the CR and PR groups. […] When treated with Compound 34 (at 100 mg/kg) in combination with rituximab, 6 out of 10 mice (60%) fell under the CR group, and 1 out of 10 mice (10%) fell under the PR group. On the other hand, no animals had CR (0%) and only 2 out of 10 mice (20%) were PR by rituximab (at 10 mg/kg), resulting in 70% ORR by the combination treatment and 20% by antibody only.

| IC50 (CD47 [1]) [nM] | IC50 (CD47 [2]) [nM] | AUC Plasma (Mouse pk profiles; IV (2 mg/kg)) [ng·h/g] | AUC Plasma (Mouse pk profiles; PO (30 mg/kg)) [ng·h/g] | clearance (Mouse pk profiles; IV (2 mg/kg)) [mL/min/kg] | Cmax (Mouse pk profiles; PO (30 mg/kg)) [ng/mL] | bioavailability (Mouse pk profiles) [%] | half-life (Mouse pk profiles; PO (30 mg/kg)) [h] | IC50 (CD47 [3]) [nM] | Compound | inhibition of binding of anti-human CD47 antibody CC2C6 (in words) (CD47 [1]) | inhibition of binding of anti-human CD47 antibody CC2C6 (in words) (CD47 [2]) | inhibition of binding of anti-human CD47 antibody CC2C6 (in words) (CD47 [3]) | inhibition of binding of anti-human CD47 antibody 2D3 (in words) (CD47 [4]) | also measured |
| --- | --- | --- | --- | --- | --- | --- | --- | --- | --- | --- | --- | --- | --- | --- |
| 840 | 1010 | 3037 | 21170 | 12.7 | 1780 | 47 | 5.2 | – | O=C1NC[C@H](c2ccc(-c3cnc(C(F)(F)F)s3)cc2)N1c1ccc2[nH]cnc2c1 [Compound 30] | effectively inhibited | effectively inhibited | effectively inhibited | did not inhibit | – |
| 1380 | 790 | 8185 | 68659 | 4 | 3720 | 56 | 12.7 | 200 | O=C1NC[C@H](c2ccc(-c3csc(C(F)(F)F)c3)cc2)N1c1ccc2[nH]cnc2c1 [Compound 32] | effectively inhibited | effectively inhibited | effectively inhibited | did not inhibit | – |
| 5950 | 3190 | 520 | 6359 | 64 | 2020 | 82 | 2.8 | 150 | CCCOc1ccc([C@H]2CNC(=O)N2c2ccc3[nH]cnc3c2)cc1 [PQ912, reference compound] | – | – | – | – | – |
| – | – | – | – | – | – | – | – | – | Rituximab: an anti-human CD20 antibody (Roche-Genentech) | – | – | – | – | tumor growth inhibition (TGI, % of control) ([5]; 3 weeks): 78.5%; median survival days ([5]; treatment discontinued at 3 weeks): 28 days; CR (complete regression), rate [6]: 0 (0%); ORR (overall response rate, CR and PR), rate [6]: 20%; PD (progression disease), rate [6]: 80%; PR (partial regression), rate [6]: 20%; CR (complete regression), number of mice ([6]; of 10 mice): 0 (0%); ORR (overall response rate, CR and PR), number of mice ([6]; of 10 mice): 2; PD (progression disease), number of mice ([6]; of 10 mice): 8; PR (partial regression), number of mice ([6]; of 10 mice): 2; CR (complete regression), rate ([6]; listed as rituximab): 0% |
